One assay deals with HeLa. The experiment in a line: Antiproliferative activity against human HeLa cells assessed as inhibition of cell growth by MTT assay. The format is functional, cell-based. (Tetrazolium dyes change colour on reduction, which living cells bring about.)
A further assay relates to A549. As to the kind of experiment: Antiproliferative activity against human A549 cells assessed as inhibition of cell growth by MTT assay. The format is functional, cell-based.
The next assay relates to MCF7. As to the kind of experiment: Antiproliferative activity against human MCF7 cells assessed as inhibition of cell growth by MTT assay. The format is functional, cell-based.
In a further assay the test system is HT-29. The experiment in a line: Antiproliferative activity against human HT-29 cells assessed as inhibition of cell growth by MTT assay. The format is functional, cell-based.
The test system of another assay is HepG2. As to the kind of experiment: Antiproliferative activity against human HepG2 cells assessed as inhibition of cell growth by MTT assay. The assay is classed as functional, cell-based.
Assay [1] is described as follows: Antioxidant activity assessed as DPPH radical scavenging activity incubated for 30 mins in dark by absorbance based analysis. The format is functional. Background: Loss of DPPH colour is used to gauge radical scavenging.

As usually defined, the IC50 is the concentration that inhibits the measured activity by half.

`COc1cc(/C=C/c2cc(/C=C/c3ccc(OCCCCO[N+](=O)[O-])c(OC)c3)n(-c3ccccn3)n2)ccc1OCCCCO[N+](=O)[O-]`: the IC50 in the assay with HeLa, in the assay with A549, in the assay with MCF7, in the assay with HT-29 and in the assay with HepG2 was more than 50 µM throughout.

With `COc1cc(/C=C/c2cc(/C=C/c3ccc(OCCO[N+](=O)[O-])c(OC)c3)n(Cc3ccccc3)n2)ccc1OCCO[N+](=O)[O-]`, the IC50 in the assay on HeLa, in the assay with A549, in the assay on MCF7, with HT-29 and with HepG2 was more than 50 µM throughout.

`COc1cc(/C=C/c2cc(/C=C/c3ccc(OCCO[N+](=O)[O-])c(OC)c3)n(-c3ccc(C(F)(F)F)cc3)n2)ccc1OCCO[N+](=O)[O-]`: the IC50 in the assay on HeLa, with A549, in the assay on MCF7, in the assay with HT-29 and in the assay on HepG2 was more than 50 µM in each case.

Regarding `COc1cc(/C=C/c2cc(/C=C/c3ccc(OCCCO[N+](=O)[O-])c(OC)c3)n(Cc3ccccc3)n2)ccc1OCCCO[N+](=O)[O-]`, the concentration for half-maximal inhibition (IC50) with HeLa, in the assay on A549, in the assay with MCF7, in the assay on HT-29 and in the assay on HepG2 was more than 50 µM in each case.

Regarding `COc1cc(/C=C/c2cc(/C=C/c3ccc(OCCCCO[N+](=O)[O-])c(OC)c3)n(-c3ccccc3F)n2)ccc1OCCCCO[N+](=O)[O-]`, the 50% inhibitory concentration (IC50) in the assay on HeLa, with A549, in the assay on MCF7, with HT-29 and in the assay with HepG2 was more than 50 µM throughout.

Turning to `COc1cc(/C=C/c2cc(/C=C/c3ccc(OCCCCO[N+](=O)[O-])c(OC)c3)n(-c3ccc(F)cc3)n2)ccc1OCCCCO[N+](=O)[O-]`, the IC50 in the assay with HeLa, in the assay on A549, in the assay with MCF7, with HT-29 and in the assay on HepG2 was more than 50 µM in each case.

In the case of `COc1cc(/C=C/c2cc(/C=C/c3ccc(OCCCO[N+](=O)[O-])c(OC)c3)n(-c3ccccc3F)n2)ccc1OCCCO[N+](=O)[O-]`, the IC50 in the assay on HeLa, in the assay with A549, in the assay on MCF7, with HT-29 and with HepG2 was more than 50 µM each time.

As to `COc1cc(/C=C/c2cc(/C=C/c3ccc(OCCCCO[N+](=O)[O-])c(OC)c3)n(-c3ccccc3)n2)ccc1OCCCCO[N+](=O)[O-]`, the concentration for half-maximal inhibition (IC50) with HeLa, in the assay on A549, in the assay on MCF7, in the assay with HT-29 and in the assay on HepG2 was more than 50 µM throughout.

With `COc1cc(/C=C/C(=O)C(=Cc2cccs2)C(=O)/C=C/c2ccc(OCCCO[N+](=O)[O-])c(OC)c2)ccc1OCCCO[N+](=O)[O-]`, the 50% inhibitory concentration (IC50) is 20.5 µM with HeLa; 1.27 µM in the assay on A549; 2.4 µM in the assay with MCF7; 1.81 µM with HT-29; 1.44 µM in the assay with HepG2. Also, the Activity entry in assay [1] is reported as “Weak_effect; Compound Showed Weak Effect Compared With Vitamin C”.

With `COc1cc(/C=C/C(=O)C(=Cc2ccco2)C(=O)/C=C/c2ccc(OCCCCO[N+](=O)[O-])c(OC)c2)ccc1OCCCCO[N+](=O)[O-]`, the IC50 with HeLa came out at 16.2 µM; with A549, 2.91 µM; in the assay on MCF7 it was 11.3 µM; in the assay on HT-29, 4.6 µM; in the assay on HepG2, 2.12 µM. Further, the Activity entry in assay [1] was “Weak_effect; Compound Showed Weak Effect Compared With Vitamin C”.

On to `COc1cc(/C=C/c2cc(/C=C/c3ccc(OCCO[N+](=O)[O-])c(OC)c3)n(-c3ccc(F)cc3)n2)ccc1OCCO[N+](=O)[O-]`, for which the IC50 in the assay on HeLa, with A549, in the assay on MCF7, in the assay on HT-29 and with HepG2 was more than 50 µM in each case.

On to `COc1cc(/C=C/c2cc(/C=C/c3ccc(OCC4CC4)c(OC)c3)n(-c3ccc(C(=O)OCCCCO[N+](=O)[O-])cc3)n2)ccc1OCC1CC1`, for which the IC50 in the assay with HeLa, with A549, with MCF7, with HT-29 and in the assay on HepG2 was more than 50 µM each time.

As to `COc1cc(/C=C/c2cc(/C=C/c3ccc(OCCCO[N+](=O)[O-])c(OC)c3)n(-c3ccc(C(F)(F)F)cc3)n2)ccc1OCCCO[N+](=O)[O-]`, the concentration for half-maximal inhibition (IC50) in the assay with HeLa, in the assay with A549, with MCF7, in the assay with HT-29 and in the assay with HepG2 was more than 50 µM each time.

With `COc1cc(/C=C/c2cc(/C=C/c3ccc(OCCCCO[N+](=O)[O-])c(OC)c3)n(-c3ccc(C(F)(F)F)cc3)n2)ccc1OCCCCO[N+](=O)[O-]`, the 50% inhibitory concentration (IC50) in the assay on HeLa, in the assay with A549, in the assay on MCF7, with HT-29 and in the assay on HepG2 was more than 50 µM each time.

`COc1cc(/C=C/c2cc(/C=C/c3ccc(OCCO[N+](=O)[O-])c(OC)c3)n(-c3ccccc3F)n2)ccc1OCCO[N+](=O)[O-]`: the half-inhibitory concentration (IC50) with HeLa, with A549, with MCF7, in the assay on HT-29 and in the assay on HepG2 was more than 50 µM throughout.

With `COc1cc(/C=C/c2cc(/C=C/c3ccc(OCCCO[N+](=O)[O-])c(OC)c3)n(-c3ccccc3)n2)ccc1OCCCO[N+](=O)[O-]`, the IC50 in the assay with HeLa, with A549, in the assay with MCF7, in the assay on HT-29 and in the assay with HepG2 was more than 50 µM in each case.

Regarding `COc1cc(/C=C/c2cc(/C=C/c3ccc(OCCCCO[N+](=O)[O-])c(OC)c3)n(Cc3ccccc3)n2)ccc1OCCCCO[N+](=O)[O-]`, the half-inhibitory concentration (IC50) in the assay on HeLa, in the assay on A549, in the assay on MCF7, with HT-29 and in the assay with HepG2 was more than 50 µM in each case.

Regarding `COc1cc(/C=C/c2cc(/C=C/c3ccc(OCCCO[N+](=O)[O-])c(OC)c3)n(-c3ccccn3)n2)ccc1OCCCO[N+](=O)[O-]`, the IC50 with HeLa, in the assay with A549, in the assay on MCF7, in the assay on HT-29 and in the assay on HepG2 was more than 50 µM each time.

With `COc1cc(/C=C/c2cc(/C=C/c3ccc(OCC4CC4)c(OC)c3)n(-c3ccc(C(=O)OCCCO[N+](=O)[O-])cc3)n2)ccc1OCC1CC1`, the half-inhibitory concentration (IC50) with HeLa, with A549, in the assay with MCF7, with HT-29 and in the assay with HepG2 was more than 50 µM each time.

With `COc1cc(/C=C/c2cc(/C=C/c3ccc(OCCCO[N+](=O)[O-])c(OC)c3)n(-c3ccc(F)cc3)n2)ccc1OCCCO[N+](=O)[O-]`, the IC50 in the assay on HeLa, with A549, with MCF7, in the assay with HT-29 and with HepG2 was more than 50 µM each time.

Consider `COc1cc(/C=C/c2cc(/C=C/c3ccc(OCCO[N+](=O)[O-])c(OC)c3)n(-c3ccccc3)n2)ccc1OCCO[N+](=O)[O-]`, for which the IC50 in the assay with HeLa, in the assay with A549, in the assay with MCF7, in the assay with HT-29 and in the assay on HepG2 was more than 50 µM each time.

Take `COc1cc(/C=C/C(=O)CC(=O)/C=C/c2ccc(O)c(OC)c2)ccc1O` [CURCUMIN]: the concentration for half-maximal inhibition (IC50) in the assay on HeLa is more than 50 µM; in the assay on A549, 24.6 µM; in the assay on MCF7 it was 19.9 µM; in the assay on HT-29, 22.9 µM; in the assay on HepG2 it was more than 50 µM.

These data come from ChEMBL document CHEMBL6114997, “New curcumin derivative induces ferroptosis in MCF-7 cells through activating SLC7A11/GPX4 axis” (Bioorg Med Chem, 2025).
